The values below come from PubChem BioAssay (NCI).

The subject of the experiment is P388/ADR leukemia. Nature of the experiment: NCI tumour cell line growth inhibition, 48 h.

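48-hour exposure; five concentrations; linearly interpolated endpoints. At the TGI there is no net growth.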

`COc1cccc2c1[C@H]1CO[C@H]3C4C[C@H](C(=O)O)C([C@@H](C2)N13)N4C` (some centres not stated) showed a TGI of 0.652 µM.
In the case of `O=NN(CCCl)C(=O)NC1CCC(=O)NC1=O` (configuration not stated), the TGI is 399 µM.
